In patent US20240425517A1, “NOVEL COMPOUND FOR DEGRADATION OF TARGET PROTEIN OR POLYPEPTIDE BY POLYUBIQUITINATION” (PRAZER THERAPEUTICS INC., priority 2021, published 2024):
Structures can show the parent of a compound that is named as a salt.

Molecular target: T1, BRD4 proteins (Homo sapiens, UniProt O60885)
T1 construct: endogenous in cells; host or cells: MM.1S
Test: Degradation of BRD4 protein in MM.1S cell lines (Western blot densitometry)
Assay type: cell-based
Details: MM.1S cells, 10 μM, 24 hours
Method in brief: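 MM.1S cells in RPMI-1640 with 10% FBS were treated with each degrader at 10 μM for 24 h. RIPA lysates were analysed by SDS-PAGE/Western blot with β-actin as reference, and BRD4 band densitometry was scored as reduction <40% (+), 40-<70% (++) or ≥70% (+++).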

Compound | BRD4 degrading capacity (%)
Cc1sc2c(c1C)C(c1ccc(Cl)cc1)=N[C@@H](CC(=O)NCCCCCC(=O)Nc1cccc(C#CCN)c1)c1nnc(C)n1-2.Cl [5-104′, (S)—N-(3-(3-aminoprop-1-yn-1-yl)phenyl)-6-(2-(4-(4-chlorophenyl)-2,3,9-trimethyl-6H-thieno[3,2-f][1,2,4]triazolo[4,3-a][1,4]diazepin-6-yl)acetamido)hexanamide hydrochloride] | ++ (the degrading capacity was reduced by 40% to 70% (exclusive of 70))
COC(=O)c1ccc(NC(=O)CCCC(=O)OCC[C@@H]2N=C(c3ccc(Cl)cc3)c3c(sc(C)c3C)-n3c(C)nnc32)cc1C#CCN.Cl [5-106′, methyl (S)-2-(3-aminoprop-1-yn-1-yl)-4-(5-(2-(4-(4-chlorophenyl)-2,3,9-trimethyl-6H-thieno[3,2-f][1,2,4]triazolo[4,3-a][1,4]diazepin-6-yl)ethoxy)-5-oxopentanamido)benzoate hydrochloride] | + (the degrading capacity of each BRD4 degrader was reduced by less than 40%)
Cc1sc2c(c1C)C(c1ccc(Cl)cc1)=N[C@@H](CC(=O)NCCCCCCCC(=O)Nc1cccc(C#CCN)c1)c1nnc(C)n1-2.Cl [5-107′, (S)—N-(3-(3-aminoprop-1-yn-1-yl)phenyl)-8-(2-(4-(4-chlorophenyl)-2,3,9-trimethyl-6H-thieno[3,2-f][1,2,4]triazolo[4,3-a][1,4]diazepin-6-yl)acetamido)octanamide hydrochloride] | ++ (the degrading capacity was reduced by 40% to 70% (exclusive of 70))
Cc1sc2c(c1C)C(c1ccc(Cl)cc1)=N[C@@H](CC(=O)NCCCCCCCCCCC(=O)Nc1cccc(C#CCN)c1)c1nnc(C)n1-2.Cl [5-108′, (S)—N-(3-(3-aminoprop-1-yn-1-yl)phenyl)-11-(2-(4-(4-chlorophenyl)-2,3,9-trimethyl-6H-thieno[3,2-f][1,2,4]triazolo[4,3-a][1,4]diazepin-6-yl)acetamido)undecanamide hydrochloride] | +++ (the degrading capacity was reduced by 70% or more)
Cc1sc2c(c1C)C(c1ccc(Cl)cc1)=N[C@@H](CCOC(=O)CCCCCCCCCC(=O)Nc1cccc(C#CCN)c1)c1nnc(C)n1-2.Cl [5-109′, (S)-2-(4-(4-chlorophenyl)-2,3,9-trimethyl-6H-thieno[3,2-f][1,2,4]triazolo[4,3-a][1,4]diazepin-6-yl)ethyl 11-((3-(3-aminoprop-1-yn-1-yl)phenyl)amino)-11-oxoundecanoate hydrochloride] | +++ (the degrading capacity was reduced by 70% or more)
COC(=O)c1ccc(NC(=O)CCCCCCCCCC(=O)OCC[C@@H]2N=C(c3ccc(Cl)cc3)c3c(sc(C)c3C)-n3c(C)nnc32)cc1C#CCN.Cl [5-110′, methyl (S)-2-(3-aminoprop-1-yn-1-yl)-4-(11-(2-(4-(4-chlorophenyl)-2,3,9-trimethyl-6H-thieno[3,2-f][1,2,4]triazolo[4,3-a][1,4]diazepin-6-yl)ethoxy)-11-oxoundecanamido)benzoate hydrochloride] | ++ (the degrading capacity was reduced by 40% to 70% (exclusive of 70))
Cc1sc2c(c1C)C(c1ccc(Cl)cc1)=N[C@@H](CC(=O)NCCCCCCCNC(=O)c1ccc(-c3ccc(C#CCN)cc3)o1)c1nnc(C)n1-2.Cl [5-111′, (S)-5-(4-(3-aminoprop-1-yn-1-yl)phenyl)-N-(7-(2-(4-(4-chlorophenyl)-2,3,9-trimethyl-6H-thieno[3,2-f][1,2,4]triazolo[4,3-a][1,4]diazepin-6-yl)acetamido)heptyl)furan-2-carboxamide hydrochloride] | ++ (the degrading capacity was reduced by 40% to 70% (exclusive of 70))
COC(=O)c1ccc(NC(=O)CCCOC(=O)C[C@@H]2N=C(c3ccc(Cl)cc3)c3c(sc(C)c3C)-n3c(C)nnc32)cc1C#CCN [5-115′, methyl (S)-2-(3-aminoprop-1-yn-1-yl)-4-(4-(2-(4-(4-chlorophenyl)-2,3,9-trimethyl-6H-thieno[3,2-f][1,2,4]triazolo[4,3-a][1,4]diazepin-6-yl)acetoxy)butanamido)benzoate hydrochloride] | +++ (the degrading capacity was reduced by 70% or more)
COC(=O)c1ccc(C#CCNC(=O)C[C@@H]2N=C(c3ccc(Cl)cc3)c3c(sc(C)c3C)-n3c(C)nnc32)cc1C#CCN.Cl [5-116′, methyl (S)-2-(3-aminoprop-1-yn-1-yl)-4-(3-(2-(4-(4-chlorophenyl)-2,3,9-trimethyl-6H-thieno[3,2-f][1,2,4]triazolo[4,3-a][1,4]diazepin-6-yl)acetamido)prop-1-yn-1-yl)benzoate hydrochloride] | +++ (the degrading capacity was reduced by 70% or more)
Cc1sc2c(c1C)C(c1ccc(Cl)cc1)=N[C@@H](CC(=O)N1CCC(CNc3ccc(C(=O)O)c(C#CCN)c3)CC1)c1nnc(C)n1-2 [5-139′, (S)-2-(3-aminoprop-1-yn-1-yl)-4-(((1-(2-(4-(4-chlorophenyl)-2,3,9-trimethyl-6H-thieno[3,2-f][1,2,4]triazolo[4,3-a][1,4]diazepin-6-yl)acetyl)piperidin-4-yl)methyl)amino)benzoic acid trifluoroacetic acid] | + (the degrading capacity of each BRD4 degrader was reduced by less than 40%)
COC(=O)c1ccc(C(=O)N2CCN(C(=O)C[C@@H]3N=C(c4ccc(Cl)cc4)c4c(sc(C)c4C)-n4c(C)nnc43)CC2)cc1C#CCN.Cl [5-140′, methyl (S)-2-(3-aminoprop-1-yn-1-yl)-4-(4-(2-(4-(4-chlorophenyl)-2,3,9-trimethyl-6H-thieno[3,2-f][1,2,4]triazolo[4,3-a][1,4]diazepin-6-yl)acetyl)piperazine-1-carbonyl)benzoate hydrochloride] | +++ (the degrading capacity was reduced by 70% or more)
COC(=O)c1ccc(NC(=O)CCCNC(=O)C[C@@H]2N=C(c3ccc(Cl)cc3)c3c(sc(C)c3C)-n3c(C)nnc32)cc1C#CCNC(C)=O [5-148′, methyl (S)-2-(3-acetamidoprop-1-yn-1-yl)-4-(4-(2-(4-(4-chlorophenyl)-2,3,9-trimethyl-6H-thieno[3,2-f][1,2,4]triazolo[4,3-a][1,4]diazepin-6-yl)acetamido)butanamido)benzoate] | + (the degrading capacity of each BRD4 degrader was reduced by less than 40%)
COC(=O)c1ccc(NC(=O)CCCN(C)C(=O)C[C@@H]2N=C(c3ccc(Cl)cc3)c3c(sc(C)c3C)-n3c(C)nnc32)cc1C#CCN.Cl [5-149′, methyl (S)-2-(3-aminoprop-1-yn-1-yl)-4-(4-(2-(4-(4-chlorophenyl)-2,3,9-trimethyl-6H-thieno[3,2-f][1,2,4]triazolo[4,3-a][1,4]diazepin-6-yl)-N-methylacetamido)butanamido)benzoate hydrochloride] | +++ (the degrading capacity was reduced by 70% or more)
COC(=O)c1ccc(N(C)C(=O)CCCNC(=O)C[C@@H]2N=C(c3ccc(Cl)cc3)c3c(sc(C)c3C)-n3c(C)nnc32)cc1C#CCN.Cl [5-150′, methyl (S)-2-(3-aminoprop-1-yn-1-yl)-4-(4-(2-(4-(4-chlorophenyl)-2,3,9-trimethyl-6H-thieno[3,2-f][1,2,4]triazolo[4,3-a][1,4]diazepin-6-yl)acetamido)-N-methylbutanamido)benzoate hydrochloride] | +++ (the degrading capacity was reduced by 70% or more)
COC(=O)c1ccc(N(C)C(=O)C2CCN(C(=O)C[C@@H]3N=C(c4ccc(Cl)cc4)c4c(sc(C)c4C)-n4c(C)nnc43)CC2)cc1C#CCN [5-152′, methyl (S)-2-(3-aminoprop-1-yn-1-yl)-4-(1-(2-(4-(4-chlorophenyl)-2,3,9-trimethyl-6H-thieno[3,2-f][1,2,4]triazolo[4,3-a][1,4]diazepin-6-yl)acetyl)-N-methylpiperidine-4-carboxamido)benzoate trifluoroacetic acid] | +++ (the degrading capacity was reduced by 70% or more)
COC(=O)c1ccc(C(=O)N(C)C2CCN(C(=O)C[C@@H]3N=C(c4ccc(Cl)cc4)c4c(sc(C)c4C)-n4c(C)nnc43)CC2)cc1C#CCN [5-153′, methyl (S)-2-(3-aminoprop-1-yn-1-yl)-4-((1-(2-(4-(4-chlorophenyl)-2,3,9-trimethyl-6H-thieno[3,2-f][1,2,4]triazolo[4,3-a][1,4]diazepin-6-yl)acetyl)piperidin-4-yl)(methyl)carbamoyl)benzoate trifluoroacetic acid] | +++ (the degrading capacity was reduced by 70% or more)
COC(=O)c1ccc(NC(=O)C2CCN(C(=O)C[C@@H]3N=C(c4ccc(Cl)cc4)c4c(sc(C)c4C)-n4c(C)nnc43)CC2)cc1C#CCNS(N)(=O)=O [5-154′, methyl (S)-4-(1-(2-(4-(4-chlorophenyl)-2,3,9-trimethyl-6H-thieno[3,2-f][1,2,4]triazolo[4,3-a][1,4]diazepin-6-yl)acetyl)piperidine-4-carboxamido)-2-(3-(sulfamoylamino)prop-1-yn-1-yl)benzoate trifluoroacetic acid] | +++ (the degrading capacity was reduced by 70% or more)
COC(=O)c1ccc(NC(=O)C2CCN(C(=O)C[C@@H]3N=C(c4ccc(Cl)cc4)c4c(sc(C)c4C)-n4c(C)nnc43)CC2)cc1C#CC1(N)CC1 [5-155′, methyl (S)-2-((1-aminocyclopropyl)ethynyl)-4-(1-(2-(4-(4-chlorophenyl)-2,3,9-trimethyl-6H-thieno[3,2-f][1,2,4]triazolo[4,3-a][1,4]diazepin-6-yl)acetyl)piperidine-4-carboxamido)benzoate trifluoroacetic acid] | ++ (the degrading capacity was reduced by 40% to 70% (exclusive of 70))
